Laboratory results as given in patent publication US4774381A, “Herbicide resistant tobacco” (E. I. Du Pont de Nemours and Company, priority 1985, dated 1988).

Experiments:
S4/S4 callus = assay: Callus growth test with chlorsulfuron and structural analogues; assay type: cell-based, Nicotiana tabacum; conditions: 10 ppb compound, 2 weeks in the dark
Experimental: (§1) In these growth tests, petri dishes containing C1 agar medium and 10 ppb of the sulfonamide herbicide chlorsulfuron and Compounds A through E were prepared. A sterile filter paper disc was placed in the center of each plate, and inoculated with 250 mg of callus tissue homozygous for the S4 mutation, or callus tissue derived from the haploid parent H1. The resulting cultures were incubated at 25° in the dark for 2 weeks. At the conclusion of the incubation period, filter discs containing callus cells were removed from culture dishes, placed on a Buchner funnel, and gentle suction applied to remove excess water. The resulting callus mass was then carefully scraped from the filter disc and weighed. Four replicates were included in each experiment.

H1 (parent) callus = assay: as above; assay type: cell-based, Nicotiana tabacum; conditions: 10 ppb compound, 2 weeks in the dark
Experimental: as §1

[1] = test system: "resistant" regenerated plants; conditions: paraquat 10^-5 M; cited from earlier work
control plants = conditions: paraquat 10^-5 M; cited from earlier work
[2] = test system: picloram-tolerant tobacco mutants; conditions: cited from earlier work

SMILES | Mean Fresh Weight (S4/S4 callus) [g] | Mean Fresh Weight (H1 (parent) callus) [g] | further results
Cc1cc(C)nc(NC(=O)NS(=O)(=O)c2ccccc2Cl)n1 [A] | 5.16 | 0 | 
COc1cc(C)nc(NC(=O)NS(=O)(=O)c2ccccc2Cl)n1 [B] | 5.60 | 0 | 
COc1cc(OC)nc(NC(=O)NS(=O)(=O)c2ccccc2Cl)n1 [C] | 5.08 | 0 | 
Cc1nc(C)nc(NC(=O)NS(=O)(=O)c2ccccc2Cl)n1 [D] | 4.53 | 0 | 
COc1nc(NC(=O)NS(=O)(=O)c2ccccc2Cl)nc(OC)n1 [E] | 4.97 | 0 | 
C[n+]1ccc(-c2cc[n+](C)cc2)cc1 [paraquat] |  |  | time for leaves to bleach to white [1]: 4 to 7 days; time for leaves to bleach to white (average) (control plants): 3.5 days
Nc1c(Cl)c(Cl)nc(C(=O)O)c1Cl [picloram, 4-amino-3,5,6-trichloropicolinic acid] |  |  | seed germination ([2]; 100 μM picloram, seeds of tolerant mutants): germinated; plantlet development ([2]; one month's exposure to 50 μM picloram, plantlets homozygous for tolerance mutations): developed stem callus tissue and degenerated
